Experiments:
KAI3 (IL-2 2.5 ng/mL) [1] = assay: drug sensitivity score (DSS) (DSS units); higher = more sensitive; extreme values may be limits of the assay; conditions: 72 h
[2] = test system: normal primary NK cells, pool 1 (3 donors), resting (IL-2 0 ng/mL); assay: as above; conditions: 72 h
[3] = test system: normal primary NK cells, pool 1 (3 donors) (IL-2 2.5 ng/mL); assay: as above; conditions: 72 h
[4] = test system: normal primary NK cells, pool 2 (3 donors) (IL-2 2.5 ng/mL); assay: as above; conditions: 72 h
IMC-1 (IL-2 20 ng/mL) [5] = assay: as above; conditions: 72 h
[6] = test system: normal primary NK cells, pool 3 (3 donors) (IL-2 2.5 ng/mL); assay: as above; conditions: 72 h
NK-YS (IL-2 2.5 ng/mL) [7] = assay: as above; conditions: 72 h
YT (IL-2 2.5 ng/mL) [8] = assay: as above; conditions: 72 h
NK-92 (IL-2 2.5 ng/mL) [9] = assay: as above; conditions: 72 h
KHYG-1 (IL-2 2.5 ng/mL) [10] = assay: as above; conditions: 72 h
NKL (IL-2 2.5 ng/mL) [11] = assay: as above; conditions: 72 h
DERL-7 (IL-2 2.5 ng/mL) [12] = assay: as above; conditions: 72 h
SNK-6 (IL-2 2.5 ng/mL) [13] = assay: as above; conditions: 72 h
[14] = test system: normal NK cells expanded with K562-aAPC; assay: as above; conditions: 72 h; IL-2 2.5 ng/mL
Method: (§1)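 Drug sensitivity and resistance testing on K562-aAPC-expanded normal NK cells: 5 concentrations (10-fold steps over a 10,000-fold range), 72 h at 37 °C, viability by CellTiter-Glo normalised to DMSO and benzethonium chloride controls; DSS from the fitted curve.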

KAI3 (IL-2 2.5 ng/mL) [15] = assay: percent inhibition of viability; higher = more inhibition; conditions: 72 h
[16] = test system: normal primary NK cells, pool 1 (3 donors), resting (IL-2 0 ng/mL); assay: as above; conditions: 72 h
[17] = test system: normal primary NK cells, pool 1 (3 donors) (IL-2 2.5 ng/mL); assay: as above; conditions: 72 h
[18] = test system: normal primary NK cells, pool 2 (3 donors) (IL-2 2.5 ng/mL); assay: as above; conditions: 72 h
IMC-1 (IL-2 20 ng/mL) [19] = assay: as above; conditions: 72 h
[20] = test system: normal primary NK cells, pool 3 (3 donors) (IL-2 2.5 ng/mL); assay: as above; conditions: 72 h
NK-YS (IL-2 2.5 ng/mL) [21] = assay: as above; conditions: 72 h
YT (IL-2 2.5 ng/mL) [22] = assay: as above; conditions: 72 h
NK-92 (IL-2 2.5 ng/mL) [23] = assay: as above; conditions: 72 h
KHYG-1 (IL-2 2.5 ng/mL) [24] = assay: as above; conditions: 72 h
NKL (IL-2 2.5 ng/mL) [25] = assay: as above; conditions: 72 h
DERL-7 (IL-2 2.5 ng/mL) [26] = assay: as above; conditions: 72 h
SNK-6 (IL-2 2.5 ng/mL) [27] = assay: as above; conditions: 72 h
[28] = test system: normal NK cells expanded with K562-aAPC; assay: as above; conditions: 72 h, IL-2 2.5 ng/mL
Method: as §1

Nc1cccc2c1CN(C1CCC(=O)NC1=O)C2=O (stereo not drawn) [Lenalidomide] (max concentration tested 100000 nM)
Conditions | drug sensitivity score
DERL-7 (IL-2 2.5 ng/mL) [12] | 0
IMC-1 (IL-2 20 ng/mL) [5] | 0.13
KAI3 (IL-2 2.5 ng/mL) [1] | 4.39
KHYG-1 (IL-2 2.5 ng/mL) [10] | 1.04
NK-92 (IL-2 2.5 ng/mL) [9] | 2.68
NK-YS (IL-2 2.5 ng/mL) [7] | 0.64
NKL (IL-2 2.5 ng/mL) [11] | 3.34
SNK-6 (IL-2 2.5 ng/mL) [13] | 8.33
YT (IL-2 2.5 ng/mL) [8] | 0.46
[2] | 7.86
[3] | 0.82
[4] | 0.06
[6] | 0.01
[14] | 1.25

percent inhibition of viability [%]
Conditions | 10 nM | 100 nM | 1000 nM | 10000 nM | 100000 nM
DERL-7 (IL-2 2.5 ng/mL) [26] | -8.15 | -7.59 | -6.54 | -8.34 | -1.1
IMC-1 (IL-2 20 ng/mL) [19] | -4.67 | 1.54 | 2.6 | 7.23 | 12.5
KAI3 (IL-2 2.5 ng/mL) [15] | -8.97 | 1.64 | -0.65 | 10.5 | 50.6
KHYG-1 (IL-2 2.5 ng/mL) [24] | -5.45 | 0.35 | 0.75 | 5.6 | 18.1
NK-92 (IL-2 2.5 ng/mL) [23] | -4.74 | -0.2 | 7.52 | 10.4 | 35.1
NK-YS (IL-2 2.5 ng/mL) [21] | -1.44 | -1.49 | 0.99 | 3.35 | 15.9
NKL (IL-2 2.5 ng/mL) [25] | -12.2 | -2.95 | -12.4 | 8.93 | 39.2
SNK-6 (IL-2 2.5 ng/mL) [27] | 5.02 | 1.16 | 7.72 | 40.7 | 50.3
YT (IL-2 2.5 ng/mL) [22] | 0.52 | 3.88 | 7 | 1.78 | 15.6
[16] | 1.29 | -2.98 | 10.6 | 35.5 | 59.5
[17] | 4.48 | -7.64 | 6.17 | 0.68 | 22
[18] | -16.8 | -10.4 | 4.67 | -3.79 | 13.3
[20] | -9.99 | -13.1 | 8.3 | -7.53 | 12.1
[28] | -4.41 | -0.84 | -0.51 | 11.3 | 16.5

CC[C@H](CO)Nc1nc(NCc2ccccc2)c2ncn(C(C)C)c2n1 [Seliciclib] (max concentration tested 10000 nM)
Conditions | drug sensitivity score
DERL-7 (IL-2 2.5 ng/mL) [12] | 1.62
IMC-1 (IL-2 20 ng/mL) [5] | 0.28
KAI3 (IL-2 2.5 ng/mL) [1] | 4.72
KHYG-1 (IL-2 2.5 ng/mL) [10] | 0.62
NK-92 (IL-2 2.5 ng/mL) [9] | 4.81
NK-YS (IL-2 2.5 ng/mL) [7] | 3.07
NKL (IL-2 2.5 ng/mL) [11] | 3.69
SNK-6 (IL-2 2.5 ng/mL) [13] | 0.43
YT (IL-2 2.5 ng/mL) [8] | 4.39
[2] | 2.43
[3] | 2.2
[4] | 1.7
[6] | 0.41
[14] | 1.71

percent inhibition of viability [%]
Conditions | 1 nM | 10 nM | 100 nM | 1000 nM | 10000 nM
DERL-7 (IL-2 2.5 ng/mL) [26] | -1.96 | 7.05 | 6.82 | 0.8 | 33.1
IMC-1 (IL-2 20 ng/mL) [19] | -6.54 | -8.7 | -1.13 | 2.41 | 13.2
KAI3 (IL-2 2.5 ng/mL) [15] | -1.01 | -9.53 | -1.56 | 6.38 | 67.1
KHYG-1 (IL-2 2.5 ng/mL) [24] | 4.31 | -8.69 | -4.34 | 1.22 | 18.6
NK-92 (IL-2 2.5 ng/mL) [23] | -2.72 | -1.58 | -0.03 | 23.2 | 39.9
NK-YS (IL-2 2.5 ng/mL) [21] | 8.26 | -2 | -1.62 | 7.11 | 38.7
NKL (IL-2 2.5 ng/mL) [25] | -8.83 | -15.7 | -16.8 | 10.3 | 41.6
SNK-6 (IL-2 2.5 ng/mL) [27] | -14.8 | -13.5 | -3.42 | -23.2 | 23.9
YT (IL-2 2.5 ng/mL) [22] | 2.72 | -5.9 | -1.61 | 9.31 | 53.2
[16] | -1.46 | -6.05 | 15.1 | 7.69 | 9.97
[17] | -1.6 | -3.91 | 11.5 | 8.66 | 32.8
[18] | -12.7 | -4.83 | 5.97 | 1.18 | 33.5
[20] | 0.36 | 1.61 | 11.3 | -0.47 | 17.9
[28] | -5.19 | -1.17 | -5.63 | 3.89 | 27.1

Source: the supplement of paper PMC5908809
